Publication PMC12724303 (Journal of Virology, 2025)
Like-named read-outs stand apart in the source and are kept apart here.

Experiments:
Vero E6/TMPRSS2 cells [1] = assay type: cell-based
Description: A solution of each CyD derivative, prepared in DMEM supplemented with 10% FBS and 1 mg/mL G-418, was filtered and sterilized using a DISMIC-25cs 0.45 µm filter. […] After 24 h, the cells were treated with CyD derivatives and further incubated for 72 h in a humidified incubator at 37°C with 5% CO₂. Cytotoxicity was assessed under a microscope.

red blood cells = conditions: cited from earlier work
[2] = test system: JEV Beijing-1 variant (procoagulant activity); assay type: biochemical, Japanese encephalitis virus
in vitro = conditions: African green monkey
Vero E6/TMPRSS2 cells [3] = conditions: CCK-8, tested up to 100 mM
Vero cells = assay type: cell-based; conditions: CCK-8, tested up to 100 mM
[4] = target: SARS-CoV-2 spike protein-ACE2 binding (UniProt P0DTC2+Q9BYF1)
Sequence of SARS-CoV-2 spike protein-ACE2 binding (Q9BYF1 18-740, one chain of several): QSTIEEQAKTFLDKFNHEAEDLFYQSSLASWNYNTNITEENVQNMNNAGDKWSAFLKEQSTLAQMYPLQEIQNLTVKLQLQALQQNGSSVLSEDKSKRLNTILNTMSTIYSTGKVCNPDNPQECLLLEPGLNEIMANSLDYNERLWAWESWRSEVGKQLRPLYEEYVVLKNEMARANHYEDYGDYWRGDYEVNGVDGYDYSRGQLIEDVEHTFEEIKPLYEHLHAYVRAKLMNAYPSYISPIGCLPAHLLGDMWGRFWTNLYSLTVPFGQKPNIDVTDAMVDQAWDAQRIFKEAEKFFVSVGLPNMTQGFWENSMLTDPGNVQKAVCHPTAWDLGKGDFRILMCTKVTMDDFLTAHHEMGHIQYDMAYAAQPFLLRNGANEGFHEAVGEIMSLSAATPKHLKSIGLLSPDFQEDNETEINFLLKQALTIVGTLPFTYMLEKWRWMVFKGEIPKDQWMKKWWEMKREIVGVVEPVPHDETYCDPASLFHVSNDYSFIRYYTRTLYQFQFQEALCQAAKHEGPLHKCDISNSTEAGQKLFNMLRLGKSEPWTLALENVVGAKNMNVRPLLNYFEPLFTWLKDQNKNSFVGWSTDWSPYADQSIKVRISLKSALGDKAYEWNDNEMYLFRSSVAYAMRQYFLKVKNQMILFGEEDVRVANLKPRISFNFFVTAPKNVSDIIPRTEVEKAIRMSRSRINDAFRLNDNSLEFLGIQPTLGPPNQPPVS

Pichinde virus = conditions: guinea pigs infected with Pichinde virus, treated 6-7 days after infection; cited from earlier work
[5] = Vero E6/TMPRSS2 cells, 72 h, microscope, twofold dilutions with 10 mM as highest concentration

## COC[C@H]1O[C@@H]2O[C@H]3[C@H](O)[C@@H](OC)[C@@H](O[C@H]4[C@H](O)[C@@H](OC)[C@@H](O[C@H]5[C@H](O)[C@@H](OC)[C@@H](O[C@H]6[C@H](O)[C@@H](OC)[C@@H](O[C@H]7[C@H](O)[C@@H](OC)[C@@H](O[C@H]1[C@H](O)[C@H]2OC)O[C@@H]7COC)O[C@@H]6COC)O[C@@H]5COC)O[C@@H]4COC)O[C@@H]3COC [DM-α-CyD]
Vero E6/TMPRSS2 cells [1]; [5]
  Highest non-toxic concentration: 2.50 mM

## COC[C@H]1O[C@@H]2O[C@H]3[C@H](O)[C@@H](OC)[C@@H](O[C@H]4[C@H](O)[C@@H](OC)[C@@H](O[C@H]5[C@H](O)[C@@H](OC)[C@@H](O[C@H]6[C@H](O)[C@@H](OC)[C@@H](O[C@H]7[C@H](O)[C@@H](OC)[C@@H](O[C@H]8[C@H](O)[C@@H](OC)[C@@H](O[C@H]1[C@H](O)[C@H]2OC)O[C@@H]8COC)O[C@@H]7COC)O[C@@H]6COC)O[C@@H]5COC)O[C@@H]4COC)O[C@@H]3COC [DM-β-CyD, 2,6-di-O-methyl-β-cyclodextrin]
Vero E6/TMPRSS2 cells [1]; African green monkey
  Highest non-toxic concentration: 5.00 mM
Red blood cells
  concentration causing 50% hemolysis: 1000 µM
[2]; 5 mM, 37°C
  effect on clotting time (JEV procoagulant activity): had no effect
In vitro
  CC50: 5.74 mM

## COC[C@H]1O[C@@H]2O[C@H]3[C@H](OC(C)=O)[C@@H](OC)[C@@H](O[C@H]4[C@H](OC(C)=O)[C@@H](OC)[C@@H](O[C@H]5[C@H](OC(C)=O)[C@@H](OC)[C@@H](O[C@H]6[C@H](OC(C)=O)[C@@H](OC)[C@@H](O[C@H]7[C@H](OC(C)=O)[C@@H](OC)[C@@H](O[C@H]8[C@H](OC(C)=O)[C@@H](OC)[C@@H](O[C@H]1[C@H](OC(C)=O)[C@H]2OC)O[C@@H]8COC)O[C@@H]7COC)O[C@@H]6COC)O[C@@H]5COC)O[C@@H]4COC)O[C@@H]3COC [DMA-β-CyD]
Vero E6/TMPRSS2 cells [3]
  CC50: ≥ 100 mM
Red blood cells; at 100 mM
  hemolysis: did not induce hemolysis
Vero cells
  CC50: ≥ 100 mM
[2]; 10 mM, 28°C
  effect on clotting time (JEV procoagulant activity): clotting time remained similar to that of the control
[2]; 10 mM, 37°C
  effect on clotting time (JEV procoagulant activity): prolonged
[4]
  effect on spike protein-ACE2 binding: did not interfere with this interaction

## COC[C@H]1O[C@@H]2O[C@H]3[C@H](OC)[C@@H](OC)[C@@H](O[C@H]4[C@H](OC)[C@@H](OC)[C@@H](O[C@H]5[C@H](OC)[C@@H](OC)[C@@H](O[C@H]6[C@H](OC)[C@@H](OC)[C@@H](O[C@H]7[C@H](OC)[C@@H](OC)[C@@H](O[C@H]8[C@H](OC)[C@@H](OC)[C@@H](O[C@H]1[C@H](OC)[C@H]2OC)O[C@@H]8COC)O[C@@H]7COC)O[C@@H]6COC)O[C@@H]5COC)O[C@@H]4COC)O[C@@H]3COC [TM-β-CyD]
Vero E6/TMPRSS2 cells [1]; [5]
  Highest non-toxic concentration: 1.25 mM

## OC[C@H]1O[C@@H]2O[C@H]3[C@H](O)[C@@H](O)[C@@H](O[C@H]4[C@H](O)[C@@H](O)[C@@H](O[C@H]5[C@H](O)[C@@H](O)[C@@H](O[C@H]6[C@H](O)[C@@H](O)[C@@H](O[C@H]7[C@H](O)[C@@H](O)[C@@H](O[C@H]1[C@H](O)[C@H]2O)O[C@@H]7CO)O[C@@H]6CO)O[C@@H]5CO)O[C@@H]4CO)O[C@@H]3CO [α-CyD]
Vero E6/TMPRSS2 cells [1]; [5]
  Highest non-toxic concentration: 5.00 mM

## OC[C@H]1O[C@@H]2O[C@H]3[C@H](O)[C@@H](O)[C@@H](O[C@H]4[C@H](O)[C@@H](O)[C@@H](O[C@H]5[C@H](O)[C@@H](O)[C@@H](O[C@H]6[C@H](O)[C@@H](O)[C@@H](O[C@H]7[C@H](O)[C@@H](O)[C@@H](O[C@H]8[C@H](O)[C@@H](O)[C@@H](O[C@H]1[C@H](O)[C@H]2O)O[C@@H]8CO)O[C@@H]7CO)O[C@@H]6CO)O[C@@H]5CO)O[C@@H]4CO)O[C@@H]3CO [β-CyD]
Vero E6/TMPRSS2 cells [1]; [5]
  Highest non-toxic concentration: ≥10.0 mM

## OC[C@H]1O[C@@H]2O[C@H]3[C@H](O)[C@@H](O)[C@@H](O[C@H]4[C@H](O)[C@@H](O)[C@@H](O[C@H]5[C@H](O)[C@@H](O)[C@@H](O[C@H]6[C@H](O)[C@@H](O)[C@@H](O[C@H]7[C@H](O)[C@@H](O)[C@@H](O[C@H]8[C@H](O)[C@@H](O)[C@@H](O[C@H]9[C@H](O)[C@@H](O)[C@@H](O[C@H]1[C@H](O)[C@H]2O)O[C@@H]9CO)O[C@@H]8CO)O[C@@H]7CO)O[C@@H]6CO)O[C@@H]5CO)O[C@@H]4CO)O[C@@H]3CO [γ-CyD]
Vero E6/TMPRSS2 cells [1]; [5]
  Highest non-toxic concentration: 2.50 mM

## hydroxypropyl-α-cyclodextrin [HP-α-CyD]
Vero E6/TMPRSS2 cells [1]; [5]
  Highest non-toxic concentration: ≥10.0 mM

B1: bavituximab (antibody, chains of the INN, looked up, V domains shown)
VH: EVQLQQSGPELEKPGASVKLSCKASGYSFTGYNMNWVKQSHGKSLEWIGHIDPYYGDTSYNQKFRGKATLTVDKSSSTAYMQLKSLTSEDSAVYYCVKGGYYGHWYFDVWGAGTTVTVSS
VL: DIQMTQSPSSLSASLGERVSLTCRASQDIGSSLNWLQQGPDGTIKRLIYATSSLDSGVPKRFSGSRSGSDYSLTISSLESEDFVDYYCLQYVSSPPTFGAGTKLELK
Pichinde virus
  animals survived: 50%
